We go through one compound from patent US6818630B1, “Biologically active materials” (ML Laboratories PLC, priority 1999, dated 2004).

The subject of this data set is B16F10 murine melanoma. Kind of data set: Anticancer activity and survival in C57 black mice bearing s.c. B16F10 melanoma. The class given is in vivo, mouse. As for the experimental part:
Twenty four C57 black mice were injected subcutaneously (s.c.) with 10^5 B16F10 murine melanoma cells as described above and then monitored daily for well-being and the presence of palpable tumours. When the tumours were palpable, mice were randomly assigned into groups of six and their tumours measured with a micrometer gauge. Tumour size and mouse body weight is recorded. Each group is then injected intra-peritoneally with either sterile saline (negative control), free doxorubicin (5 mg kg^−1) in sterile saline or dextrin-doxorubicin (11.8 wt %, 34% succinolyation) at either 5 mg kg^−1 or 10 mg kg^−1, on days 0,1 and 2. The mice were monitored daily and tumour size and body weight recorded. Once the tumour area exceeded 2.89 cm^2 the mice were culled according to UKCCCR guidelines. Mouse survival is then expressed as % T/C (test/control saline).

For the compound `COc1cccc2c1C(=O)c1c(O)c3c(c(O)c1C2=O)C[C@@](O)(C(=O)CO)C[C@@H]3O[C@H]1C[C@H](N)[C@H](O)[C@H](C)O1` [doxorubicin], for the setting “5 mg kg^-1 i.p.”, the anticancer activity entry is reported as “not active” and the “body weight / toxicity” value is “drop in body weight consistent with toxicity”. Besides, the Toxic deaths (5 mg kg^-1 i.p. on day 0,1,2) is listed as 0/6. Besides, the “Days survival after treatment (mean ± SD)” value (5 mg kg^-1 i.p. on day 0,1,2, N = 6) is on record as 4.5 ± 0.5^ns days. Under “5 mg kg^-1 i.p. on day 0,1,2, survival test/control saline”, the “T/C (%)” value is reported as 103%.
